From the supplement of paper PMC13380429

Assays:
Conditions in all cases: 72 h
[1] = system: Calu-3; assay: relative viability EC50 (midpoint between 100% and the lowest measured viability); higher = less toxic
[2] = system: Caco-2; assay: as above
[3] = system: Vero E6; assay: as above
[4] = system: U2OS; assay: as above
[5] = system: HepG2; assay: as above
[6] = system: Calu-3; assay: cell viability relative to DMSO; higher = less toxic
[7] = system: Caco-2; assay: as above
[8] = system: Vero E6; assay: as above
[9] = system: U2OS; assay: as above
[10] = system: HepG2; assay: as above
[11] = system: Calu-3; assay: drug sensitivity score (DSS) for viability; higher = more toxic; extreme values may be limits of the assay
[12] = system: Caco-2; assay: as above
[13] = system: Vero E6; assay: as above
[14] = system: U2OS; assay: as above
[15] = system: HepG2; assay: as above

| Compound | relative viability EC50 [1] [µM] | relative viability EC50 [2] [µM] | relative viability EC50 [3] [µM] | relative viability EC50 [4] [µM] | relative viability EC50 [5] [µM] | cell viability ([6]; 1 nM) [%] | cell viability ([6]; 10 nM) [%] | cell viability ([6]; 100 nM) [%] | cell viability ([6]; 1000 nM) [%] | cell viability ([6]; 10000 nM) [%] | cell viability ([7]; 1 nM) [%] | cell viability ([7]; 10 nM) [%] | cell viability ([7]; 100 nM) [%] | cell viability ([7]; 1000 nM) [%] | cell viability ([7]; 10000 nM) [%] | cell viability ([8]; 1 nM) [%] | cell viability ([8]; 10 nM) [%] | cell viability ([8]; 100 nM) [%] | cell viability ([8]; 1000 nM) [%] | cell viability ([8]; 10000 nM) [%] | cell viability ([9]; 1 nM) [%] | cell viability ([9]; 10 nM) [%] | cell viability ([9]; 100 nM) [%] | cell viability ([9]; 1000 nM) [%] | cell viability ([9]; 10000 nM) [%] | cell viability ([10]; 1 nM) [%] | cell viability ([10]; 10 nM) [%] | cell viability ([10]; 100 nM) [%] | cell viability ([10]; 1000 nM) [%] | cell viability ([10]; 10000 nM) [%] | drug sensitivity score [11] | drug sensitivity score [12] | drug sensitivity score [13] | drug sensitivity score [14] | drug sensitivity score [15] |
| --- | --- | --- | --- | --- | --- | --- | --- | --- | --- | --- | --- | --- | --- | --- | --- | --- | --- | --- | --- | --- | --- | --- | --- | --- | --- | --- | --- | --- | --- | --- | --- | --- | --- | --- | --- |
| CCCCCCCCCCCC(=O)O [lauric-acid] | > 10 | > 10 | > 10 | > 10 | > 10 | 102 | 108 | 101 | 100 | 97.5 | 94.1 | 102 | 111 | 110 | 98.2 | 111 | 113 | 101 | 104 | 93.5 | 102 | 95.3 | 102 | 97.6 | 98.1 | 105 | 106 | 87.4 | 96 | 94.3 | 0 | 0 | 0 | 0 | 0 |
| [NH-]c1c[n+](N2CCOCC2)no1 [linsidomine] | > 10 | > 10 | > 10 | > 10 | > 10 | 100 | 96 | 105 | 94.3 | 116 | 102 | 96.1 | 95.8 | 96.1 | 89.4 | 98.9 | 99.3 | 95.6 | 100 | 91.1 | 105 | 98.8 | 100 | 96.3 | 101 | 96.9 | 106 | 97.7 | 96.8 | 104 | 0 | 0 | 0 | 0 | 0 |
| COc1cc(C[C@H](C)[C@H](C)Cc2ccc3c(c2)OCO3)ccc1O [macelignan] | > 10 | > 10 | > 10 | > 10 | > 10 | 99.3 | 102 | 102 | 101 | 103 | 87.3 | 102 | 93.9 | 96.6 | 87.3 | 100 | 106 | 98.9 | 95.4 | 101 | 98.5 | 99 | 94 | 101 | 91.5 | 98.4 | 103 | 92.1 | 81.1 | 86.3 | 0 | 0 | 0 | 0 | 3.3 |
| COC(=O)[C@@H](N)CS [mecysteine] | > 10 | > 10 | > 10 | > 10 | > 10 | 104 | 106 | 87.2 | 109 | 99.2 | 96.1 | 95 | 97.7 | 99.8 | 102 | 95.8 | 97.5 | 98.5 | 88.6 | 101 | 98.2 | 101 | 96.3 | 100 | 95.3 | 108 | 107 | 99.6 | 91.1 | 105 | 0 | 0 | 0 | 0 | 0 |
| Cc1cc(C)cc(OCC2CNC(=O)O2)c1 (stereo not given) [metaxalone] | > 10 | > 10 | > 10 | > 10 | > 10 | 95.6 | 102 | 103 | 100 | 95.4 | 100 | 101 | 99.9 | 103 | 105 | 101 | 103 | 102 | 105 | 97.7 | 97.4 | 96.8 | 97.1 | 99.2 | 98.8 | 92.1 | 99.7 | 87 | 93.2 | 101 | 0 | 0 | 0 | 0 | 0 |
| Cc1cc(=O)[nH]c(=S)[nH]1 [methylthiouracil] | > 10 | > 10 | > 10 | > 10 | > 10 | 106 | 109 | 83.8 | 97.7 | 96.6 | 98.7 | 96.6 | 99.3 | 96.3 | 94.6 | 101 | 92.6 | 100 | 92.1 | 97.8 | 103 | 99 | 98.7 | 97.4 | 97.3 | 107 | 108 | 95.1 | 95.3 | 105 | 0 | 0 | 0 | 0 | 0 |
| O=P(O)(O)C(O)(Cc1cnc2ccccn12)P(=O)(O)O [minodronic-acid] | > 10 | > 10 | > 10 | > 10 | > 10 | 98.1 | 95.1 | 104 | 96.5 | 106 | 98.1 | 103 | 96.4 | 103 | 98.6 | 106 | 102 | 98.6 | 100 | 98.1 | 100 | 97.6 | 95.9 | 102 | 102 | 99.2 | 102 | 106 | 85.5 | 101 | 0 | 0 | 0 | 0 | 0 |
| Oc1ccc2c3c1O[C@H]1[C@@H](O)CC[C@@]4(O)[C@@H](C2)N(CC2CCC2)CC[C@]314 [nalbuphine] | > 10 | > 10 | > 10 | > 10 | > 10 | 103 | 95.2 | 95.9 | 117 | 105 | 102 | 102 | 101 | 88.4 | 98.6 | 99.9 | 104 | 95.3 | 102 | 96.5 | 97.7 | 96.5 | 98.2 | 92.4 | 96.9 | 107 | 99.2 | 110 | 95.9 | 91.4 | 0 | 0 | 0 | 0 | 0 |
| CCOc1cc2ncc(C#N)c(Nc3ccc(OCc4ccccn4)c(Cl)c3)c2cc1NC(=O)/C=C/CN(C)C [neratinib] | 0.0124 | 0.365 | 1.14 | > 10 | 1.59 | 93.4 | 69.6 | 43.9 | 34.9 | 33.7 | 98.7 | 93.4 | 85.1 | 54.7 | 35 | 104 | 102 | 90.9 | 64.1 | 17.5 | 93.6 | 96.7 | 96.7 | 88 | 75.7 | 111 | 97.3 | 88.2 | 77.6 | 17.8 | 22.8 | 10.3 | 8.7 | 1.8 | 7.5 |
| CNCCC(Oc1ccccc1OC)c1ccccc1 (stereo not given) [nisoxetine] | > 10 | > 10 | > 10 | > 10 | > 10 | 94 | 107 | 98.2 | 109 | 102 | 105 | 96.2 | 109 | 98.6 | 107 | 107 | 104 | 101 | 103 | 95.6 | 105 | 98.3 | 102 | 99 | 102 | 113 | 105 | 104 | 108 | 99 | 0 | 0 | 0 | 0 | 0 |
| CCN(Cc1ccc(Cl)nc1)/C(=C/[N+](=O)[O-])NC [nitenpyram] | > 10 | > 10 | > 10 | > 10 | > 10 | 101 | 94 | 93.5 | 104 | 94 | 95.8 | 100 | 95 | 97.5 | 98.3 | 103 | 104 | 98.1 | 96.9 | 105 | 99 | 97 | 98 | 100 | 101 | 104 | 98.7 | 105 | 97.5 | 108 | 0 | 0 | 0 | 0 | 0 |
| CC(=O)O[C@]1(C(C)=O)CC[C@H]2[C@@H]3C=C(C)C4=CC(=O)CC[C@@H]4[C@H]3CC[C@@]21C [nomegestrol-acetate] | > 10 | > 10 | > 10 | > 10 | > 10 | 99 | 94.1 | 87.7 | 106 | 108 | 88.5 | 97.3 | 102 | 91.6 | 97.4 | 100 | 96.3 | 99.3 | 98.6 | 111 | 99.8 | 102 | 102 | 103 | 101 | 103 | 97.1 | 102 | 106 | 110 | 0 | 0 | 0 | 0 | 0 |
| NC[C@H](O)c1ccc(O)c(O)c1 [norepinephrine] | > 10 | > 10 | > 10 | > 10 | > 10 | 101 | 88.3 | 93.7 | 98.6 | 95.3 | 88.9 | 95.9 | 101 | 93.2 | 97.5 | 99.9 | 96.7 | 98.1 | 95 | 98.6 | 99.4 | 100 | 98.5 | 99.8 | 99.6 | 102 | 95.3 | 96 | 105 | 106 | 0 | 0 | 0 | 0 | 0 |
| Cc1c(-c2cnccn2)ssc1=S [oltipraz] | > 10 | > 10 | > 10 | > 10 | > 10 | 94 | 94.7 | 106 | 96.5 | 101 | 94.2 | 96 | 103 | 106 | 101 | 88.1 | 95.2 | 88.7 | 93 | 104 | 98.3 | 96.5 | 101 | 96.4 | 104 | 93.4 | 103 | 94.2 | 94.7 | 105 | 0 | 0 | 0 | 0 | 0 |
